Results taken from patent publication EP2036556A1, “Piperidone derivatives and medical uses thereof” (Heinrich-Pette-Institut, priority 2007, dated 2009).

Assays:
[1] = system: X4-tropic HIV-1 strain NL4/3; experiment: HIV-1 infection experiments in PM1 cells, p24 antigen ELISA, strain NL4/3; assay type: cell-based; conditions: concentration of 6 µM, compared to DMSO control cultures
Experimental: (§1) HIV-1 infection experiments using the T-cell tropic (X4) strain NL4/3, the macrophage-tropic (R5) strain BaL were routinely performed using PM1 cells (virus laboratory strains and cells were obtained from the NIH AIDS Research and Reference Reagent Program). Cells were cultured in RPMI medium containing 10 % fetal calf serum (Pansystems GmbH) and antibiotics (penicillin and streptomycin). For HIV-1 infection, 5 x 10^7 cells were resuspended in 500 µl culture medium without drugs and incubated at 37 °C for 3 h with 100 ng of HIV-1 viral stocks. After infection, cells were washed twice with PBS without Ca^2+ and Mg^2+ to avoid false positive p24 antigen determination. Cells were resuspended and identical aliquots (5 x 10^5 / mL) of infected cells were further cultured in 24-well plates (triplicates) in the presence of the drugs (dissolved in DMSO) at various concentrations, or in medium with DMSO as control for the calculation of the inhibition of virus replication. Culture medium was changed and cells were splitted twice a week post-infection. Viability of the cells (as measured by Alamar Blue) and p24 antigen levels (as measured by ELISA; Innogenetics N.V.) were determined at different time points.

MT-2 cells = assay type: cell-based; conditions: human, 10 days, 10 µM
Experimental: First, the subtoxic concentration of the inhibitor was determined by vitality assays. MT-2 cells were cultured for 14 days with 10, 5, 2.5 and 1.5 µM of the inhibitor as well as DMSO as a solvent control. In regular intervals, samples for determination of the vitality of the cells were taken. Vitality was tested with the alamarBlue®-Assays.

[2] = system: R5-tropic HIV-1 strain BaL; experiment: HIV-1 infection experiments in PM1 cells, p24 antigen ELISA, strain BaL; assay type: cell-based
Experimental: as §1

[3] = system: T. brucei brucei laboratory strain TC 221; experiment: Trypanosome assay (in vitro cytotoxicity, Alamar Blue); assay type: cell-based, Trypanosoma brucei brucei; conditions: for EC50: Trypanosoma brucei, strain TC 221, 10^4 trypanosomes per mL, incubated 72 h, reading at 48 h, Alamar Blue, read-out: ED50 [µM] T. brucei brucei
Experimental: Parasite culture: Trypomastigote forms of T. brucei brucei laboratory strain TC 221 were cultured in Baltz medium according to standard conditions.^36 In vitro cytotoxicity assays: The test compounds were dissolved in DMSO or 0.1 M NaOH. A defined number of parasites (10^4 trypanosomes per mL) were exposed in test chambers of 96-well plates to various concentrations of the test substances in a final volume of 200 µl. Positive (trypanosomes in culture medium) and negative controls (test substance without trypanosomes) were run with each plate. The plates were then incubated at 37°C in an atmosphere of 5 % CO2 for a total time period of 72 h. […] The effect of test substances was quantified in ED50 values by linear interpolation^18 of three different measurements. The activity of the test substances was measured by light absorption in an MR 700 Microplate Reader at a wavelength of 550 nm with a reference wave length of 630 nm, using the Alamar Blue®.

HTLV-I = experiment: Inhibition of HTLV-I virus production in MT-2 cells (real-time PCR of gag RNA in supernatant); assay type: cell-based; conditions: Primate T-lymphotropic virus 1, MT2, 240 h, day 10 and 14, read-out: inhibition of virus production in relation to the solvent control
Excerpt: For the investigation wether the inhibition of DOHH by the compositions of the invention can influence replication of HTLV-I, the lymphoma cell line MT-2, which is latently infected by HTLV-I was used as a model system (Harada et al., 1985, Infection of HTLV-III/LAV in HTLV-I-carrying cells MT-2 and MT-4 and application in a plaque assay. Science 229, 563-566). MT-2 cells continually produce a high amount of virus particles which are secreted into the cell culture supernatant, and they grow quickly. The experimental approach is based on the comparison of the virus load of cells treated with the potential inhibitor and an untreated control. As the inhibitor was dissolved in DMSO, the same amount of this solvent was added to the control cells.
For investigating the influence of inhibition of DOOH on the replication of HTLV-I, as before, MT-2 cells were cultivated with the determined subtoxic concentrations of compound 11 as well as a solvent control. In regular intervals, cell vitality was determined and the RNA of the virus particles from the supernatant was isolated. After reverse transcription with a primer specific for the gag region of HTLV-I RNA, the cDNA was quantified by real-time PCR. For detection of the amplified DNA, a gag-specific probe was used. A plasmid comprising the HTLV-I provirus served as a standard. […]

[4] = system: macrophage cell line J774.1; experiment: Macrophage assay (Alamar Blue cytotoxicity); assay type: cell-based; conditions: Mus musculus; J774.1 macrophages; after 48h; read-out: ED50 [µM] Macrophage after 48h
Experimental: The macrophage cell line J774.1 was maintained in complete Click RPMI medium. For the experimental procedures cells were detached from the flasks with a rubber police, washed twice with PBS and suspended at 2 x 10^6 cells mL^-1 in complete Click RPMI medium. […] Following the addition of 20 µl of Alamar Blue, the plates were further incubated at similar conditions. The plates were then read 24 and 48 h later. Control experiments to examine the effect of cell density, incubation time and DMSO concentration were performed. Absorbance in the absence of compounds was set as 100 % of growth control.

HIV-1 = HIV-1 infection experiments in PM1 cells, strain not specified (BaL and/or NL4/3); assay type: cell-based; conditions: strain and concentration not given
Experimental: as §1

plasmodia = conditions: after 48 h; previous study; cited from earlier work

| Structure (SMILES) | EC50 [3] [µM] | EC50 [4] [µM] | inhibition of virus replication (HIV-1) [%] | activity against the plasmodia (plasmodia) | also measured |
| --- | --- | --- | --- | --- | --- |
| C=CCN1[C@@H](c2ccc([N+](=O)[O-])cc2)C(C(=O)OCC)=C(O)C(C(=O)OCC)[C@@H]1c1ccc([N+](=O)[O-])cc1 (stereo partly drawn) [Compound 11, Diethyl (2R,6S)-1-allyl-4-hydroxy-2,6-bis(4-nitrophenyl)-1,2,3,6-tetrahydropyridine-3,5-dicarboxylate] | 3.06 ± 0.55 | > 100 | – | – | inhibition of replication of HIV-1 NL4/3 [1]: completely inhibit; death of the cells (MT-2 cells): 90%; inhibition of replication of HIV-1 BaL ([2]; PM1 cells, concentration of 5 µM, compared to DMSO control cultures): completely inhibit; inhibition at 2.5 µM (HTLV-I; 2.5 µM): > 90%; inhibition at 5 µM (HTLV-I; 5 µM): > 80% |
| COC(=O)C1=C(O)C(C(=O)OC)[C@H](c2ccc([N+](=O)[O-])cc2)N(Cc2ccccc2)[C@H]1c1ccc([N+](=O)[O-])cc1 (stereo partly drawn) [Compound 12, Dimethyl (2R,6S)-1-benzyl-4-hydroxy-2,6-bis(4-nitrophenyl)-1,2,3,6-tetrahydropyridine-3,5-dicarboxylate] | 3.01 ± 0.27 | 18.4 ± 2.93 | 20 | – | – |
| CCOC(=O)C1=C(O)C(C(=O)OCC)[C@H](c2ccc([N+](=O)[O-])cc2)N(Cc2ccccc2)[C@H]1c1ccc([N+](=O)[O-])cc1 (stereo partly drawn) [Compound 13, Diethyl (2R,6S)-1-benzyl-4-hydroxy-2,6-bis(4-nitrophenyl)-1,2,3,6-tetrahydropyridine-3,5-dicarboxylate] | 2.72 ± 0.51 | > 100 | 20 | – | – |
| COC(=O)C1=C(O)C[C@@H](c2ccccn2)N(Cc2ccc(Cl)cc2)[C@H]1c1ccccn1 [Compound 21, Methyl (2'R,6'S)-1'-(4-chlorobenzyl)-4'-hydroxy-1',2',5',6'-tetrahydro-2,2';6',2''-terpyridine-3'-carboxylate] | 0.32 ± 0.09 | 32.8 ± 0.49 | – | high activity | – |
| C=CCN1[C@@H](c2ccccn2)C(C(=O)OC)=C(O)C[C@H]1c1ccccn1 [Compound 24, Methyl (2'R,6'S)-1'-allyl-4'-hydroxy-1',2',5',6'-tetrahydro-2,2';6',2''-terpyridine-3'-carboxylate] | 1.08 ± 0.48 | 35 | – | high activity | – |
| Cl.Clc1cccc(Cl)c1CON=CC1CCN(CCCc2ccccc2)CC1 [Compound 53, 4-[(2,6-Dichloro-benzyloxyimino)-methyl]-1-(3-phenyl-propyl)-piperidinium hydrochloride] | 3.86 ± 1.95 | 28.4 ± 5.92 | – | – | inhibition at 10 µM ([2]; Human immunodeficiency virus 1, HIV-1 BaL infected PM1 cells, concentration of 10 µM, read-out: virus replication inhibited): 85%; activity against trypanosomes (in words) ([3]; statement of the discussion): active against trypanosomes |
